# HELM strings list units from the 5' end as sugar, base in round brackets, then linkage (d deoxyribose, r ribose, m 2'-O-methyl, p phosphodiester). Strings are as the collection lists them; they lack the last nucleoside at the 3' end of the tested compound. [moe] = 2'-O-(2-methoxyethyl) (MOE); [sp] = phosphorothioate linkage; [m5C] = 5-methylcytosine
# Biological target: HTT
# Assay: mouse, dose not given
# Settings: ASO
row,Substance,3 h FOB score [score 0-7]
1,RNA1{[moe](A)[sp].[moe](A)p.[moe]([m5C])p.[moe](A)p.[moe](A)[sp].d(A)[sp].d(T)[sp].d(A)[sp].d(T)[sp].d(T)[sp].d(T)[sp].d(T)[sp].d([m5C])[sp].d(A)[sp].d(A)[sp].[moe]([m5C])p.[moe](T)p.[moe](G)[sp].[moe](G)}$$$$ (last 3' nucleoside missing),4.5
2,RNA1{[moe](A)[sp].[moe](T)p.[moe]([m5C])p.[moe]([m5C])p.[moe](A)[sp].d(G)[sp].d(A)[sp].d(T)[sp].d(T)[sp].d(A)[sp].d(T)[sp].d(A)[sp].d([m5C])[sp].d(A)[sp].d(T)[sp].[moe]([m5C])p.[moe](T)p.[moe]([m5C])[sp].[moe]([m5C])}$$$$ (last 3' nucleoside missing),0
3,RNA1{[moe](A)[sp].[moe]([m5C])p.[moe](A)p.[moe](G)p.[moe]([m5C])[sp].d(T)[sp].d(T)[sp].d(T)[sp].d(T)[sp].d(A)[sp].d(T)[sp].d(T)[sp].d(T)[sp].d([m5C])[sp].d([m5C])[sp].[moe](A)p.[moe](T)p.[moe](A)[sp].[moe]([m5C])}$$$$ (last 3' nucleoside missing),1
4,RNA1{[moe](A)[sp].[moe]([m5C])p.[moe](A)p.[moe](G)p.[moe]([m5C])p.[moe](T)p.d(T)[sp].d(T)[sp].d(T)[sp].d(A)[sp].d(T)[sp].d(T)[sp].d(T)[sp].d([m5C])[sp].d([m5C])[sp].d(A)[sp].[moe](T)p.[moe](A)[sp].[moe]([m5C])}$$$$ (last 3' nucleoside missing),0
5,RNA1{[moe](A)[sp].[moe]([m5C])p.[moe](T)p.[moe]([m5C])p.[moe](A)[sp].d(T)[sp].d(T)[sp].d(T)[sp].d([m5C])[sp].d([m5C])[sp].d(A)[sp].d([m5C])[sp].d([m5C])[sp].d(T)[sp].d(T)[sp].[moe]([m5C])p.[moe](A)p.[moe](G)[sp].[moe]([m5C])}$$$$ (last 3' nucleoside missing),0
6,RNA1{[moe](G)[sp].[moe](G)p.[moe](T)p.[moe](T)p.[moe](A)[sp].d(G)[sp].d(T)[sp].d(T)[sp].d(T)[sp].d(T)[sp].d([m5C])[sp].d([m5C])[sp].d(T)[sp].[moe](T)p.[moe](T)p.[moe](T)[sp].[moe](A)}$$$$ (last 3' nucleoside missing),1
7,RNA1{[moe](G)[sp].[moe](G)p.[moe](T)p.[moe](T)p.[moe](A)[sp].d(G)[sp].d(T)[sp].d(T)[sp].d(T)[sp].d(T)[sp].d([m5C])[sp].d([m5C])[sp].d(T)[sp].d(T)[sp].d(T)[sp].[moe](T)p.[moe](A)p.[moe](T)[sp].[moe](A)}$$$$ (last 3' nucleoside missing),1
8,RNA1{[moe](G)[sp].[moe](G)p.[moe](T)p.[moe]([m5C])p.[moe](A)[sp].d([m5C])[sp].d(A)[sp].d(G)[sp].d([m5C])[sp].d(T)[sp].d(T)[sp].d(T)[sp].d(T)[sp].d(A)[sp].d(T)[sp].[moe](T)p.[moe](T)p.[moe]([m5C])[sp].[moe]([m5C])}$$$$ (last 3' nucleoside missing),0
9,RNA1{[moe](G)[sp].[moe](T)p.[moe](G)p.[moe]([m5C])p.[moe](A)[sp].d(T)[sp].d(T)[sp].d(A)[sp].d([m5C])[sp].d(T)[sp].d(T)[sp].d(T)[sp].d(T)[sp].d(T)[sp].d(A)[sp].[moe]([m5C])p.[moe](A)p.[moe](A)[sp].[moe](T)}$$$$ (last 3' nucleoside missing),1.25
10,RNA1{[moe](G)[sp].[moe](T)p.[moe](G)p.[moe]([m5C])p.[moe](A)p.[moe](T)p.d(T)[sp].d(A)[sp].d([m5C])[sp].d(T)[sp].d(T)[sp].d(T)[sp].d(T)[sp].d(T)[sp].d(A)[sp].d([m5C])[sp].[moe](A)p.[moe](A)[sp].[moe](T)}$$$$ (last 3' nucleoside missing),3

# From the OligoGym collection
